Source: patent US20080269298A1, “Benzimidazol-1-YL-thiophene compounds for the treatment of cancer” (priority 2002, published 2008)

Tests used:
[1] = system: breast tumor (MCF7) cell line; assay: Methylene Blue Growth Inhibition Assay, MCF7; format: cell-based; conditions: Homo sapiens, 72 h; Cell Line MCF7, 3 days; read-out: MeB IC50
Method: (§1) Normal Human foreskin fibroblasts (HFF) and human colon (HCT116, RKO), lung (H460), prostate (PC3), and breast tumor (MCF7) cell lines were cultured in high glucose DMEM (Life Technologies) containing 10% fetal bovine serum (FBS) at 37° C. in a humidified 10% CO2, 90% air incubator. Cells were harvested using trypsin/EDTA, counted using a haemocytometer, and plated in 100 μl of the appropriate media, at the following densities, in a 96-well tissue culture plate (Falcon 3075): HFF 5,000 cells/well, HCT116 3,000 cells/well, RKO 2,500 cells/well, H460 2,000 cells/well, PC3 8,000 cells/well, MCF7 4,000 cells/well. The next day, compounds were diluted in DMEM containing 100 μg/ml gentamicin, at twice the final required concentration, from 10 mM stock solutions in DMSO. 100μ/well of these dilutions were added to the 100 μl of media currently on the cell plates. Medium containing 0.6% DMSO was added to control wells. Compounds diluted in DMEM were added to all cell lines. The final concentration of DMSO in all wells was 0.3%. Cells were incubated at 37° C., 10% CO2 for 3 days. Medium was removed by aspiration. Cell biomass was estimated by staining cells with […] per well methylene blue (Sigma M9140, 0.5% in 50:50 ethanol:water), and incubation at room temperature for at least 30 minutes. Stain was removed, and the plates rinsed under a gentle stream of water, and air-dried. To release stain from the cells 100 μl of solubilization solution was added (1% N-lauroyl sarcosine, Sodium salt, Sigma L5125, in PBS), and plates were shaken gently for about 30 minutes. Optical density at 620 nm was measured on a microplate reader. Percent inhibition of cell growth was calculated relative to vehicle treated control wells. Concentration of compound that inhibits 50% of cell growth (IC50) was interpolated using nonlinear regression (Levenberg-Marquardt) and the equation, y=Vmax*(1-(x/(K+x)))+Y2, where “K” was equal to the IC50. In Table 1, +=10−>30 uM; ++=1−10 uM: +++=<1 uM.

[2] = system: prostate (PC3) tumor cell line; assay: Methylene Blue Growth Inhibition Assay, PC3; format: cell-based; conditions: Homo sapiens, 72 h; Cell Line PC3, 3 days; read-out: MeB IC50
Method: as §1

PLK1 kinase domain = target: T1, PLK1 kinase domain (Homo sapiens, UniProt P53350); assay: Assay for Inhibition of PLK1 (SPA enzyme activity); format: biochemical; conditions: 2 μM ATP, read-out: Ave pIC50 PLK Enzyme Inhibition (converted)
T1 construct: made in house; host or cells: baculovirus-infected T. ni insect cells
Method: All procedures were performed at 4° C. Cells were lysed in so mM HEPES, 200 mM NaCl, so mM imidazole, 5% glycerol; pH 7.5. The homogenate was centrifuged at 14K rpm in a SLA-1500 rotor for 1 hr and the supernatant filtered through a 1.2 micron filter. The supernatant was loaded onto a Nickel chelating Sepharose (Amersham Pharmacia) column and washed with lysis buffer. Protein was eluted using 20%, 30% and 100% buffer B steps where buffer B is 50 mM HEPES, 200 mM NaCl, 300 mM imidazole, 5% glycerol; pH 7.5. Fractions containing PLK were determined by SDS-PAGE. Fractions containing PLK were diluted five-fold with so mM HEPES, 1 mM DTT, 5% glycerol; pH 7.5, then loaded on an SP Sepharose (Amersham Pharmacia) column. After washing the column with so mM HEPES, 1 mM DTT, 5% glycerol; pH 7.5, PLK was step eluted with so mM HEPES, 1 mM DTT, 500 mM NaCl; 5% glycerol; pH 7.5. PLK was concentrated using a 10 kDa molecular weight cutoff membrane and then loaded onto a Superdex 200 gel filtration (Amersham Pharmacia) column equilibrated in 25 mM HEPES, 1 mM DTT, 500 mM NaCl, 5% glycerol; pH 7.5. Fractions containing PLK were determined by SDS-PAGE. PLK was pooled, aliquoted and stored at −80° C. Samples were quality controlled using mass spectrometry, N-terminal sequencing and amino acid analysis.
B. Enzyme activity+/−inhibitors was determined as follows:
Compounds were added to the plate (1 μl in […]). […] Reaction Mix B is prepared as follows at 4° C.: • Reaction Mix B (Enzyme Mix) • 25 mM HEPES, pH 7.2 • 15 mM MgCl2 • 0.15 mg/ml BSA • 2 mM DTT • 2-10 nM PLK1 kinase domain
Reaction Mix A (20 μl) is added per well. Reaction Mix B (20 μl) is added per well. Incubate 1.5 hrs. at RT. The enzymatic reaction is stopped with 175 μl of SPA/EDTA bead mix (29 mM EDTA, 2.5 mg/ml Streptavidin-coated SPA in Standard Dulbecco's PBS (without Mg^2+ and Ca^2+), 60 μM ATP). Plates are sealed spun (after a 1 hr incubation at RT) at 1,000×g for 7 min or settled overnight, then plates counted in Packard TopCount for 30 seconds/well.

[3] = system: colon (HCT116) tumor cell line; assay: Methylene Blue Growth Inhibition Assay, HCT116; format: cell-based; conditions: Homo sapiens, HCT-116, 72 h; Cell Line HCT116, 3 days; read-out: MeB IC50
Method: as §1

[4] = system: lung (H460) tumor cell line; assay: Methylene Blue Growth Inhibition Assay, H460; format: cell-based; conditions: Homo sapiens, NCI-H460, 72 h; Cell Line H460, 3 days; read-out: MeB IC50
Method: as §1

[5] = system: colon (RKO) tumor cell line; assay: Methylene Blue Growth Inhibition Assay, RKO; format: cell-based; conditions: Homo sapiens, 72 h, 3 days, read-out: MeB IC50
Method: as §1

[6] = system: Normal Human foreskin fibroblasts (HFF); assay: Methylene Blue Growth Inhibition Assay, HFF; format: cell-based; conditions: 72 h, Cell Line HFF, 3 days, read-out: MeB IC50
Method: as §1

T1 sequence (P53350 21-346): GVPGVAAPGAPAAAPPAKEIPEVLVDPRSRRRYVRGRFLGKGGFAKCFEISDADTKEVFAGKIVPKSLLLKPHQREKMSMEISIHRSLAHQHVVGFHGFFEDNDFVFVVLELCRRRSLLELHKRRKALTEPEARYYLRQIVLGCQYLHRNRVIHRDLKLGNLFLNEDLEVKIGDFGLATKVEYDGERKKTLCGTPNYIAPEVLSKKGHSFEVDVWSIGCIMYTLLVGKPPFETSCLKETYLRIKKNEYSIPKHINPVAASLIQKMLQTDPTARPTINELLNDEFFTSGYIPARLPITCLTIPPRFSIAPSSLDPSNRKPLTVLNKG

| IC50 [1] [µM] | IC50 [2] [µM] | IC50 (PLK1 kinase domain) [µM] | IC50 [3] [µM] | IC50 [4] [µM] | IC50 [5] [µM] | SMILES | IC50 [6] [µM] |
| --- | --- | --- | --- | --- | --- | --- | --- |
| > 10 | > 10 | < 0.1 | > 10 | 1 to 10 | > 10 | O=C(O)c1sc(-n2cnc3ccc(Br)cc32)cc1OCc1ccccc1C(F)(F)F [Example 74, 5-(6-Bromo-1H-benzimidazol-1-yl)-3-{[2-(trifluoromethyl)-benzyl]oxy}thiophene-2-carboxylic acid] | > 10 |
| > 10 | > 10 | < 0.1 | > 10 | > 10 | > 10 | COc1cc2ncn(-c3cc(OCc4ccccc4Br)c(C(=O)O)s3)c2cc1OC [Example 76, 3-[(2-Bromobenzyl)oxy]-5-(5,6-dimethoxy-1H-benzimidazol-1-yl)thiophene-2-carboxylic acid] | > 10 |
| > 10 | > 10 | < 0.1 | > 10 | > 10 | > 10 | O=C(O)c1sc(-n2cnc3cc(Cl)c(Cl)cc32)cc1OCc1ccco1 [Example 78, 5-(5,6-Dichloro-1H-benzimidazol-1-yl)-3-(2-furylmethoxy)thiophene-2-carboxylic acid] | > 10 |
| 1 to 10 | > 10 | < 0.1 | 1 to 10 | 1 to 10 | 1 to 10 | NC(=O)c1sc(-n2cnc3ccc(OCC(F)(F)F)cc32)cc1OCc1ccccc1C(F)(F)F [Example 87, 5-[6-(2,2,2-Trifluoroethoxy)-1H-benzimidazol-1-yl]-3-{[2-(trifluoromethyl)benzyl]oxy}thiophene-2-carboxamide] | > 10 |
| 1 to 10 | > 10 | 0.1 to 10 | > 10 | > 10 | > 10 | NC(=O)c1sc(-n2cnc3cc4c(cc32)OC(F)(F)O4)cc1OCc1ccccc1C(F)(F)F [Example 88, 5-(2,2-Difluoro-5H-[1,3]dioxolo[4,5-f]benzimidazol-5-yl)-3-{[2-(trifluoromethyl)benzyl]oxy}thiophene-2-carboxamide] | > 10 |
| 1 to 10 | > 10 | < 0.1 | 1 to 10 | 1 to 10 | 1 to 10 | COc1cc2ncn(-c3cc(OCc4cccc(N(C)C)c4)c(C(N)=O)s3)c2cc1OC [Example 90, 5-(5,6-Dimethoxy-1H-benzimidazol-1-yl)-3-{[3-(dimethylamino)benzyl]oxy}thiophene-2-carboxamide] | > 10 |

Further lines, the compound ahead of its results:

| SMILES | IC50 [1] [µM] | IC50 [2] [µM] | IC50 (PLK1 kinase domain) [µM] | IC50 [3] [µM] | IC50 [4] [µM] | IC50 [5] [µM] | IC50 [6] [µM] |
| --- | --- | --- | --- | --- | --- | --- | --- |
| O=C(O)c1sc(-n2cnc3ccc(Cl)cc32)cc1OCc1ccc(F)cc1F [Example 71, 5-(6-Chloro-1H-benzimidazol-1-yl)-3-[(2,4-difluorobenzyl)oxy]-thiophene-2-carboxylic acid] | > 10 | > 10 | < 0.1 | > 10 | > 10 | > 10 | > 10 |
| O=C(O)c1sc(-n2cnc3ccc(Cl)cc32)cc1OCc1cccnc1 [Example 72, 5-(6-Chloro-1H-benzimidazol-1-yl)-3-(pyridin-3-ylmethoxy)thiophene-2-carboxylic acid] | > 10 | > 10 | < 0.1 | > 10 | > 10 | > 10 | > 10 |
| O=C(O)c1sc(-n2cnc3cc(Cl)c(Cl)cc32)cc1OCc1ccoc1 [Example 77, 5-(5,6-Dichloro-1H-benzimidazol-1-yl)-3-(3-furylmethoxy)thiophene-2-carboxylic acid] | > 10 | > 10 | < 0.1 | > 10 | > 10 | > 10 | > 10 |
| O=C(O)c1sc(-n2cnc3cc(Cl)c(Cl)cc32)cc1OCc1ccsc1 [Example 79] | > 10 | > 10 | < 0.1 | > 10 | > 10 | > 10 | > 10 |
| O=C(O)c1sc(-n2cnc3cc(Cl)c(Cl)cc32)cc1OCc1cccs1 [Example 80, 5-(5,6-Dichloro-1H-benzimidazol-1-yl)-3-(thien-2-ylmethoxy)-thiophene-2-carboxylic acid] | > 10 | > 10 | < 0.1 | > 10 | > 10 | > 10 | > 10 |
| NC(=O)c1sc(-n2cnc3cc4c(cc32)OCCCO4)cc1OCc1ccccc1C(F)(F)F [Example 89] | 1 to 10 | > 10 | < 0.1 | 1 to 10 | 1 to 10 | 1 to 10 | > 10 |
| COc1cc2ncn(-c3cc(OCc4ccccc4[N+](=O)[O-])c(C(N)=O)s3)c2cc1OC [Example 92, 5-(5,6-Dimethoxy-1H-benzimidazol-1-yl)-3-[(2-nitrobenzyl)oxy]thiophene-2-carboxamide] | < 1 | 1 to 10 | < 0.1 | < 1 | < 1 | < 1 | 1 to 10 |
| COc1cc2ncn(-c3cc(OCc4ccccc4-c4ccccc4)c(C(N)=O)s3)c2cc1OC [Example 93, 3-(1,1′-Biphenyl-2-ylmethoxy)-5-(5,6-dimethoxy-1H-benzimidazol-1-yl)thiophene-2-carboxamide] | > 10 | > 10 | 0.1 to 10 | > 10 | > 10 | > 10 | > 10 |
| COc1cc2ncn(-c3cc(OCc4cccc(I)c4)c(C(N)=O)s3)c2cc1OC [Example 94] | 1 to 10 | 1 to 10 | < 0.1 | 1 to 10 | 1 to 10 | 1 to 10 | 1 to 10 |
| COc1cc2ncn(-c3cc(OCc4ccccc4C#N)c(C(N)=O)s3)c2cc1OC [Example 95, 3-[(2-Cyanobenzyl)oxy]-5-(5,6-dimethoxy-1H-benzimidazol-1-yl)thiophene-2-carboxamide] | 1 to 10 | > 10 | < 0.1 | 1 to 10 | 1 to 10 | 1 to 10 | > 10 |
